Legend:
Format in all cases: cell-based
Staphylococcus aureus = test: Agar plate disc-diffusion, antibacterial, Staphylococcus aureus; details: nutrient agar, 37° C., 48 hours, DMSO zone subtracted; for inhibition zone, Staphylococcus aureus, A: A = concentration of comp. = 10,000 μL
Experimental: (§1) The agar plate disc-diffusion method was applied. […] The discs were then placed onto the surface of agar plates (nutrient agar for bacteria and Sabouraud's dextrose agar for fungi) seeded with the test organism. Each plate contained 15 mL of the agar medium, previously seeded with 0.2 mL of the broth culture of each organism pregrown for 18 hours. The plates were incubated at 37° C. for 48 hours, and 72 hours for fungi. The inhibition zones was measured in mm. Discs impregnated with DMSO were used as a control, and its inhibition zone was subtracted from the tested compound actual inhibition zone.
(§2) Their antibacterial screened against gram positive bacteria namely Bacillus cereus and Staphylococcus aureus and gram-negative bacterial strains namely Pseudomonas aeruginosa and Escherichia coli, while their antifungal activity screened against Aspergillus flavus and Chrysosporium keratinophilum as shown in tables 1 and 2 using ciprofloxacin as a reference.

Aspergillus flavus = test: Agar plate disc-diffusion, antifungal, Aspergillus flavus; details: Sabouraud's dextrose agar, 37° C., 72 hours, DMSO zone subtracted; for inhibition zone, Aspergillus flavus, B: B = concentration of comp. = 30,000 μL
Experimental: as §1, §2

Bacillus cereus = test: Agar plate disc-diffusion, antibacterial, Bacillus cereus; details: nutrient agar, 37° C., 48 hours, DMSO zone subtracted
Experimental: as §1, §2

Pseudomonas aeruginosa = test: Agar plate disc-diffusion, antibacterial, Pseudomonas aeruginosa; details: nutrient agar, 37° C., 48 hours, DMSO zone subtracted
Experimental: as §1, §2

Escherichia coli = test: Agar plate disc-diffusion, antibacterial, Escherichia coli; details: nutrient agar, 37° C., 48 hours, DMSO zone subtracted
Experimental: as §1, §2

[1] = system: Chrysosporium keratinophilum; test: Agar plate disc-diffusion, antifungal, Chrysosporium keratinophilum; details: Sabouraud's dextrose agar, 37° C., 72 hours, DMSO zone subtracted
Experimental: The agar plate disc-diffusion method was applied. Sterilized filter papers (6 mm in diameter) were wetted with 10 μL of a solution of 5-(4,5-bis(4-bromophenyl)-2-(4-chlorophenyl)-1H-imidazol-1-yl)pentanoic acid (V) to be tested, containing 10 mg/mL in DMSO, and the discs were allowed to air dry. The discs were then placed onto the surface of agar plates (nutrient agar for bacteria and Sabouraud's dextrose agar for fungi) seeded with the test organism. Each plate contained 15 mL of the agar medium, previously seeded with 0.2 mL of the broth culture of each organism pregrown for 18 hours. The plates were incubated at 37° C. for 48 hours, and 72 hours for fungi. The inhibition zones was measured in mm. Discs impregnated with DMSO were used as a control, and its inhibition zone was subtracted from the tested compound actual inhibition zone.
as §2

[2] = A = concentration of comp. = 10,000 μL
[3] = B = concentration of comp. = 30,000 μL
[4] = C = concentration of comp. = 50,000 μL

## O=C(O)c1cn(C2CC2)c2cc(N3CCNCC3)c(F)cc2c1=O [Cip., ciprofloxacin, reference compound]
Staphylococcus aureus
  inhibition zone, Staphylococcus aureus, A: 42 mm
Aspergillus flavus
  inhibition zone, Aspergillus flavus, B: 32 mm

## O=C(O)CCCCn1c(-c2ccc(Cl)cc2)nc(-c2ccc(Br)cc2)c1-c1ccc(Br)cc1 [V, 5-(4,5-bis(4-bromophenyl)-2-(4-chlorophenyl)-1H-imidazol-1-yl)pentanoic acid]
Bacillus cereus; [2]
  inhibition zone, Bacillus Cereus, A: 24 mm
Bacillus cereus; [3]
  inhibition zone, Bacillus Cereus, B: 26 mm
Bacillus cereus; [4]
  inhibition zone, Bacillus Cereus, C: 38 mm
Staphylococcus aureus
  inhibition zone, Staphylococcus aureus, A: 16 mm
Staphylococcus aureus; [3]
  inhibition zone, Staphylococcus aureus, B: 21 mm
Staphylococcus aureus; [4]
  inhibition zone, Staphylococcus aureus, C: 29 mm
Pseudomonas aeruginosa; A = concentration of comp. = 10 mg/mL
  inhibition zone, Pseudomonas aeruginosa, A: 24 mm
Pseudomonas aeruginosa; [3]
  inhibition zone, Pseudomonas aeruginosa, B: 30 mm
Pseudomonas aeruginosa; [4]
  inhibition zone, Pseudomonas aeruginosa, C: 44 mm
Escherichia coli; [2]
  inhibition zone, Escherichia coli, A: 28 mm
Escherichia coli; [3]
  inhibition zone, Escherichia coli, B: 36 mm
Escherichia coli; [4]
  inhibition zone, Escherichia coli, C: 51 mm
Aspergillus flavus; A = concentration of comp. = 10,000 μg/mL
  inhibition zone, Aspergillus flavus, A: 18 mm
Aspergillus flavus
  inhibition zone, Aspergillus flavus, B: 23 mm
Aspergillus flavus; [4]
  inhibition zone, Aspergillus flavus, C: 31 mm
[1]; [2]
  inhibition zone, Chrysosporium keratinophilum, A: 26 mm
[1]; [3]
  inhibition zone, Chrysosporium keratinophilum, B: 27 mm
[1]; [4]
  inhibition zone, Chrysosporium keratinophilum, C: 44 mm
